Laboratory results reported in patent US10800791B2, “Triazole ACC inhibitors and uses thereof” (Gilead Apollo, LLC, priority 2015, dated 2020).
Converted amounts (≈) assume the structure as drawn. Read-outs that look alike come from different tables or passages of the source.

What was measured:
[1] = system: Collectotrichum graminicola (Cg); assay: Growth inhibition assay of fungal pathogens, Cg; assay type: cell-based; details: 48 h
Outline: (§1)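 Pathogen growth in 17% V8 broth is measured by OD600 at 24 and 48 hours, after blank subtraction, in the presence of compound at 50, 10 and 2 ppm or 2, 0.4 and 0.08 ppm. Inhibition in percent comes from 48-hour readings against the DMSO control.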

Septoria tritici (St) = assay: Growth inhibition assay of fungal pathogens, St; assay type: cell-based; details: Zymoseptoria tritici, 48 h
Outline: as §1

fungal (fACC2) = fungal (fACC2) (UniProt Q00955); details: read-out: fACC2 (in vitro ACC2 Inhibition Assay, IC50), ADP-Glo, 5 nM ACC2, 20 μM ATP, 20 μM acetyl-CoA
C. albicans = assay: Antifungal Activity Assay (broth microtiter MIC), C. albicans; assay type: cell-based, Candida albicans; details: Candida albicans, ATCC90028, 48 h
Outline: (§2)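 Susceptibility was determined by CLSI M27-A3 broth microdilution in RPMI 1640 buffered with MOPS. Growth inhibition was scored visually after 48 h.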

Botrtyis cinerea (Bc) = assay: Growth inhibition assay of fungal pathogens, Bc; assay type: cell-based; details: 48 h
Outline: as §1

human (hACC2) = human (hACC2) (Homo sapiens, UniProt O00763); assay: In vitro ACC inhibition assay (ADP-Glo), hACC2; assay type: biochemical; details: 5 nM ACC2, 20 μM ATP, 20 μM acetyl-CoA
Experimental: The detailed procedure is as follows. […] 10 μL ADP glo reagent was added. […] 20 μL kinase detection reagent was added.

C. parapsilosis = assay: Antifungal Activity Assay (broth microtiter MIC), C. parapsilosis; assay type: cell-based, Candida parapsilosis; details: Lodderomyces parapsilosis, ATCC22019, 48 h
Outline: as §2

Diplodia maydis (Dm) = assay: Growth inhibition assay of fungal pathogens, Dm; assay type: cell-based; details: Stenocarpella maydis, 48 h
Outline: as §1

[2] = system: Phytophthora capsici (Pc); assay: Growth inhibition assay of fungal pathogens, Pc; assay type: cell-based; details: 48 h
Outline: as §1

Rhizoctonia solani (Rs) = assay: Growth inhibition assay of fungal pathogens, Rs; assay type: cell-based; details: 48 h
[3] = Collectotrichum graminicola, growth inhibition at 48 hours vs 2% DMSO control, read-out: Concentration at 90% Inhibition Cg
[4] = Collectotrichum graminicola, growth inhibition vs 2% DMSO control at 48 hours, read-out: Concentration at 90% Inhibition Cg
[5] = Septoria tritici, growth inhibition at 48 hours vs 2% DMSO control, read-out: Concentration at 90% Inhibition St
[6] = Septoria tritici, growth inhibition vs 2% DMSO control at 48 hours, read-out: Concentration at 90% Inhibition St
[7] = Table 3a, ATCC 90028, 3 replicates, MIC recorded at 48 h, read-out: MIC, C. albicans ATCC 90028
[8] = Table 3b (additional results), ATCC 90028, 3 replicates, MIC recorded at 48 h, read-out: MIC, C. albicans ATCC 90028
[9] = Botrtyis cinerea, growth inhibition at 48 hours vs 2% DMSO control, read-out: Concentration at 90% Inhibition Bc
[10] = Botrtyis cinerea, growth inhibition vs 2% DMSO control at 48 hours, read-out: Concentration at 90% Inhibition Bc
[11] = Table 3a, ATCC 22019, 3 replicates, MIC recorded at 48 h, read-out: MIC, C. parapsilosis ATCC 22019
[12] = Table 3b (additional results), ATCC 22019, 3 replicates, MIC recorded at 48 h, read-out: MIC, C. parapsilosis ATCC 22019
[13] = Diplodia maydis, growth inhibition at 48 hours vs 2% DMSO control, read-out: Concentration at 90% Inhibition Dm
[14] = Diplodia maydis, growth inhibition vs 2% DMSO control at 48 hours, read-out: Concentration at 90% Inhibition Dm
[15] = growth inhibition at 48 hours vs 2% DMSO control, read-out: Concentration at 90% Inhibition Pc
[16] = growth inhibition vs 2% DMSO control at 48 hours, read-out: Concentration at 90% Inhibition Pc
[17] = mycelial plugs, growth inhibition at 48 hours vs 2% DMSO control, read-out: Concentration at 90% Inhibition Rs
[18] = mycelial plugs, growth inhibition vs 2% DMSO control at 48 hours, read-out: Concentration at 90% Inhibition Rs

Chain of fungal (fACC2) (Q00955 whole entry): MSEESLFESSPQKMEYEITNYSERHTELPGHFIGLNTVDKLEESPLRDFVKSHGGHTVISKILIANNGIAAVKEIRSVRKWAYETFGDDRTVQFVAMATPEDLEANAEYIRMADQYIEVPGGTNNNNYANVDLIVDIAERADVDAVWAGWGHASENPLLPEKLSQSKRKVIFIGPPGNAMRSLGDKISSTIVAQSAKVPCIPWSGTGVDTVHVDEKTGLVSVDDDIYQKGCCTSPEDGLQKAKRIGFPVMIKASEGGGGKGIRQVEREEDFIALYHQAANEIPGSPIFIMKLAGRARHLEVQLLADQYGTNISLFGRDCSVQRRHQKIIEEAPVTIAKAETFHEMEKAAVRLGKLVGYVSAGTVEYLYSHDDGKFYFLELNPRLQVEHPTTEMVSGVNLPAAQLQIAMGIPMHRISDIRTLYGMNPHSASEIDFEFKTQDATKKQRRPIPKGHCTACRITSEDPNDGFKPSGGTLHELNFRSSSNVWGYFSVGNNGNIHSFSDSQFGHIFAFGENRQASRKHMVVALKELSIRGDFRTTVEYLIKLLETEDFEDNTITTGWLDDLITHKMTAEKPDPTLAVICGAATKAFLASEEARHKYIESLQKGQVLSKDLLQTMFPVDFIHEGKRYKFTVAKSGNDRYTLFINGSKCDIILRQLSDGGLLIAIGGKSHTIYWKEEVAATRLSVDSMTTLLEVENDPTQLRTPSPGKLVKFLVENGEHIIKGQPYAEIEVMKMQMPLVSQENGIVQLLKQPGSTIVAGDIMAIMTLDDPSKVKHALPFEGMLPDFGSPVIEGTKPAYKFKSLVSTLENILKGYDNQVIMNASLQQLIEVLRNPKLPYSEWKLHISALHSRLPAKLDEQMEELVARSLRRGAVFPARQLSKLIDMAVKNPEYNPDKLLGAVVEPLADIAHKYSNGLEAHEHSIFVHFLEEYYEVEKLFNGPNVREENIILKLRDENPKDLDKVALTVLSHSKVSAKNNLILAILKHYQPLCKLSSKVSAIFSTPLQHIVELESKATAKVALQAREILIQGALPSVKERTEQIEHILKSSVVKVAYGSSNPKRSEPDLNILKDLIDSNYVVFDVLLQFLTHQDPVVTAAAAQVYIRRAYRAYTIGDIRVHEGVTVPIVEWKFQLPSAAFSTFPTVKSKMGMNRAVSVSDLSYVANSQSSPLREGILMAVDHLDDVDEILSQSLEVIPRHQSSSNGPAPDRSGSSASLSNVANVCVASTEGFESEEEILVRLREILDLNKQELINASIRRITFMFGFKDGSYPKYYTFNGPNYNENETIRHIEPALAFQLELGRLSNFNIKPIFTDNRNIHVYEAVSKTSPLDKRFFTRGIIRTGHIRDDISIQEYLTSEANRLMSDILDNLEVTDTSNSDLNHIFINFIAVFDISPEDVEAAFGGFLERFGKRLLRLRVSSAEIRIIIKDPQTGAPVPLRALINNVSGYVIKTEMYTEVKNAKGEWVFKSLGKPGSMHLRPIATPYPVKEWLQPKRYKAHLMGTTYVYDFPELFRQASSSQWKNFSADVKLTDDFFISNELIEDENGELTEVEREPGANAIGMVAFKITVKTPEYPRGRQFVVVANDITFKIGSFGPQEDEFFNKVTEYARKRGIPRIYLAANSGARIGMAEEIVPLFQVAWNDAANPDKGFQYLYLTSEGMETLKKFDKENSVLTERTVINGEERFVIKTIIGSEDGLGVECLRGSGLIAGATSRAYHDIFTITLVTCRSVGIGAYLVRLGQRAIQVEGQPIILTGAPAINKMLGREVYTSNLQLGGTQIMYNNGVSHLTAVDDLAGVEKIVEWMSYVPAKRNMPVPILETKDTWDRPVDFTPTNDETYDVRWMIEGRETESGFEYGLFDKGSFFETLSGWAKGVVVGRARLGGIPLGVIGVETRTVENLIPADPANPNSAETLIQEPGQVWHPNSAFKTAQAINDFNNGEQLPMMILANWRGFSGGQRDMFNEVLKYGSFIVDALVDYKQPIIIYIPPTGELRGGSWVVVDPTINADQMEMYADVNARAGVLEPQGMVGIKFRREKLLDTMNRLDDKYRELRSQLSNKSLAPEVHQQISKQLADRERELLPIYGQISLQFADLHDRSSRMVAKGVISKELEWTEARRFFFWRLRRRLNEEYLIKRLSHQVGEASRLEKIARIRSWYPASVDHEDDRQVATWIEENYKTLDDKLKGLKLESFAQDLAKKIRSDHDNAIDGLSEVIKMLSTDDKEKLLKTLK
Chain of human (hACC2) (O00763 whole entry): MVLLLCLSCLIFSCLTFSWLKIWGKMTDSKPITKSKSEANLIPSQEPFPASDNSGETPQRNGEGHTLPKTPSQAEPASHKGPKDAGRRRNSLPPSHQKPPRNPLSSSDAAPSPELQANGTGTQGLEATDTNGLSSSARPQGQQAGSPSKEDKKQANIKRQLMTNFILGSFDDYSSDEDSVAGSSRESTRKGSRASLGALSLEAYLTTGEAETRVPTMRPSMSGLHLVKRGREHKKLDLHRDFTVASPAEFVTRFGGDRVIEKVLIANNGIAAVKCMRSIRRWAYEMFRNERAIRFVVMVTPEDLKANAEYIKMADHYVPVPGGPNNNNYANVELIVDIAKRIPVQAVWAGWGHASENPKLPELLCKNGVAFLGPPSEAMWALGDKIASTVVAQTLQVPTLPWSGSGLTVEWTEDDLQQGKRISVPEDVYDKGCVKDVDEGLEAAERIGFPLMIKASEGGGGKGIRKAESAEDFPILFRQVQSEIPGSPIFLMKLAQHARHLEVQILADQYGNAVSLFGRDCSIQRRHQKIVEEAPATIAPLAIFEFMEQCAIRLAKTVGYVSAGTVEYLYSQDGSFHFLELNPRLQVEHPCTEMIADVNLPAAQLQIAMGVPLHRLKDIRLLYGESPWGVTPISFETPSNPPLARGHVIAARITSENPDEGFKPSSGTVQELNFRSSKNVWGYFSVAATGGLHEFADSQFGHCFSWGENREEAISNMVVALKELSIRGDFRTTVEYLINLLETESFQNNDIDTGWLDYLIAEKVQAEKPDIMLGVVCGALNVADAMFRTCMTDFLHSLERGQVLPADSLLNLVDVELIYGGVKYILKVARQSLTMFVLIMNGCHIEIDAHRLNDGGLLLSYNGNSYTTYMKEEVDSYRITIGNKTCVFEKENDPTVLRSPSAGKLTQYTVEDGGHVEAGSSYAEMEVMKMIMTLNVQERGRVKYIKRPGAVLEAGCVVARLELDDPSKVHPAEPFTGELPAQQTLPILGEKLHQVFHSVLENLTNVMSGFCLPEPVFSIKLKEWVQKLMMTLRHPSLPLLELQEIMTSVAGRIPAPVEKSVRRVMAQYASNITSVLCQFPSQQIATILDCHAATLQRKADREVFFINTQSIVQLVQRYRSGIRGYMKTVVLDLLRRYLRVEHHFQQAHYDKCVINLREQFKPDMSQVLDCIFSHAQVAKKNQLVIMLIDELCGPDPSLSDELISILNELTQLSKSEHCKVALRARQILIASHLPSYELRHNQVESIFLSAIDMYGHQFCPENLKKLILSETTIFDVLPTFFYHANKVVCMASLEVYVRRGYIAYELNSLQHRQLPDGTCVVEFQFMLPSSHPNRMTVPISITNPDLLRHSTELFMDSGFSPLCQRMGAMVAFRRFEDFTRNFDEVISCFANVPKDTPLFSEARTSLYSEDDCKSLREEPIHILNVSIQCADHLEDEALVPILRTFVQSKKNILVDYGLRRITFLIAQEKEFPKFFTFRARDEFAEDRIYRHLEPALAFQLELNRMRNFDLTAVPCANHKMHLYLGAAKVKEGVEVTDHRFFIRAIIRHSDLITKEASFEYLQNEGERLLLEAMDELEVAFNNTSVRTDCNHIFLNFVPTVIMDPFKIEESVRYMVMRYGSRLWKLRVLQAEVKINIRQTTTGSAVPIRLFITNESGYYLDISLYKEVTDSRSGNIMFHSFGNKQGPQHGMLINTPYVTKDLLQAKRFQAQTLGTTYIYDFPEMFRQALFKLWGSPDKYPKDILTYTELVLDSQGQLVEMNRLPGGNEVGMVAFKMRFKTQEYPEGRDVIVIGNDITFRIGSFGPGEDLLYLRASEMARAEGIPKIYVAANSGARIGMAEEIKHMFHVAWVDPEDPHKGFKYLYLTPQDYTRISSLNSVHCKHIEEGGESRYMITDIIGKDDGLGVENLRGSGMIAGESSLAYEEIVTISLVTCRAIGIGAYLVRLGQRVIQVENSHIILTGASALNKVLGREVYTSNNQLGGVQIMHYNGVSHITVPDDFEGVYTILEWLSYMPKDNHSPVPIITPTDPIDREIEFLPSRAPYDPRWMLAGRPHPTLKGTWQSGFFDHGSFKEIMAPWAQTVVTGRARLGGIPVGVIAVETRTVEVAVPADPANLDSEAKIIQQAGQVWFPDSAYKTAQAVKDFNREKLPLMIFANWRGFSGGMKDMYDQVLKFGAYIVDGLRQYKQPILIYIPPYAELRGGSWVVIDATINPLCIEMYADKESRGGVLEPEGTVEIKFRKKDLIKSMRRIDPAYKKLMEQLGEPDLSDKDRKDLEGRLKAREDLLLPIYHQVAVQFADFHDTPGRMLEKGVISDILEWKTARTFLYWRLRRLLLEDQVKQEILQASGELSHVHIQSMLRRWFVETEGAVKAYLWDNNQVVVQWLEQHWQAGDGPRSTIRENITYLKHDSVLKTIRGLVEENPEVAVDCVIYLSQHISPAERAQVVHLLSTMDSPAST

| SMILES | IC90 [1, 3] [µg/mL] | IC90 [1, 4] [µg/mL] | IC90 (Septoria tritici (St); [5]) [µg/mL] | IC90 (Septoria tritici (St); [6]) [µg/mL] | IC50 (fungal (fACC2); Table 2a) [nM] | IC50 (fungal (fACC2); Table 2b, additional results) [nM] | MIC (C. albicans; [7]) [µg/mL] | MIC (C. albicans; [8]) [µg/mL] | IC90 (Botrtyis cinerea (Bc); [9]) [µg/mL] | IC90 (Botrtyis cinerea (Bc); [10]) [µg/mL] | IC50 (human (hACC2); Table 2a) [nM] | IC50 (human (hACC2); Table 2b, additional results) [nM] | MIC (C. parapsilosis; [11]) [µg/mL] | MIC (C. parapsilosis; [12]) [µg/mL] | IC90 (Diplodia maydis (Dm); [13]) [µg/mL] | IC90 (Diplodia maydis (Dm); [14]) [µg/mL] | IC90 [2, 15] [µg/mL] | IC90 [2, 16] [µg/mL] | IC90 (Rhizoctonia solani (Rs); [17]) [µg/mL] | IC90 (Rhizoctonia solani (Rs); [18]) [µg/mL] | also measured |
| --- | --- | --- | --- | --- | --- | --- | --- | --- | --- | --- | --- | --- | --- | --- | --- | --- | --- | --- | --- | --- | --- |
| Cc1c(-n2nccn2)sc2c1c(=O)n(C(C)(C)C(=O)NC(C)C)c(=O)n2C[C@H](OC(C)C)c1cc(F)ccc1OCC1COC1 [Compound I-55, (R)-2-(1-(2-(5-fluoro-2-(oxetan-3-ylmethoxy)phenyl)-2-isopropoxyethyl)-5-methyl-2,4-dioxo-6-(2H-1,2,3-triazol-2-yl)-1,4-dihydrothieno[2,3-d]pyrimidin-3(2H)-yl)-N-isopropyl-2-methylpropanamide] | 0.4 (≈ 0.622 µM) | 0.4 (≈ 0.622 µM) | > 50 | > 50 | 1 to 5 | 1 to 5 | 0.25 to 1 (≈ 0.389 to 1.56 µM) | 1.01 to 2 (≈ 1.57 to 3.11 µM) | 0.4 (≈ 0.622 µM) | 0.4 (≈ 0.622 µM) | 10 to 40 | 10 to 40 | 0.25 to 1 (≈ 0.389 to 1.56 µM) | 1.01 to 2 (≈ 1.57 to 3.11 µM) | 0.4 (≈ 0.622 µM) | 0.4 (≈ 0.622 µM) | > 50 | > 50 | 0.4 (≈ 0.622 µM) | 0.4 (≈ 0.622 µM) |  |
| Cc1c(-n2nccn2)sc2c1c(=O)n(C(C)(C)C(=O)NC(C)C)c(=O)n2C[C@H](OC(C)C)c1cc(F)ccc1OCC#N [Compound I-56, (R)-2-(1-(2-(2-(cyanomethoxy)-5-fluorophenyl)-2-isopropoxyethyl)-5-methyl-2,4-dioxo-6-(2H-1,2,3-triazol-2-yl)-1,4-dihydrothieno[2,3-d]pyrimidin-3(2H)-yl)-N-isopropyl-2-methylpropanamide] |  |  |  |  | 1 to 5 | 1 to 5 |  |  |  |  | 10 to 40 | 10 to 40 |  |  |  |  |  |  |  |  | IC90 ([1]; read-out: Concentration at 90% Inhibition Cg, Collectotrichum graminicola, growth inhibition at 48 hours vs 2% DMSO control): 2 µg/mL (≈ 3.27 µM); IC90 ([1]; read-out: Concentration at 90% Inhibition Cg, Collectotrichum graminicola, growth inhibition vs 2% DMSO control at 48 hours): 2 µg/mL (≈ 3.27 µM); IC90 (Septoria tritici (St); read-out: Concentration at 90% Inhibition St, Septoria tritici, growth inhibition at 48 hours vs 2% DMSO control): 10 µg/mL (≈ 16.3 µM); IC90 (Septoria tritici (St); read-out: Concentration at 90% Inhibition St, Septoria tritici, growth inhibition vs 2% DMSO control at 48 hours): > 50 µg/mL; MIC (C. albicans; read-out: MIC, C. albicans ATCC 90028, Table 3a, 3 replicates, MIC recorded at 48 h): 0.25 to 1 µg/mL (≈ 0.409 to 1.63 µM); MIC (C. albicans; read-out: MIC, C. albicans ATCC 90028, Table 3b (additional results), 3 replicates, MIC recorded at 48 h): 1.01 to 2 µg/mL (≈ 1.65 to 3.27 µM); IC90 (Botrtyis cinerea (Bc); read-out: Concentration at 90% Inhibition Bc, Botrtyis cinerea, growth inhibition at 48 hours vs 2% DMSO control): 0.4 µg/mL (≈ 0.654 µM); IC90 (Botrtyis cinerea (Bc); read-out: Concentration at 90% Inhibition Bc, Botrtyis cinerea, growth inhibition vs 2% DMSO control at 48 hours): 0.4 µg/mL (≈ 0.654 µM); MIC (C. parapsilosis; read-out: MIC, C. parapsilosis ATCC 22019, Table 3a, 3 replicates, MIC recorded at 48 h): 0.25 to 1 µg/mL (≈ 0.409 to 1.63 µM); MIC (C. parapsilosis; read-out: MIC, C. parapsilosis ATCC 22019, Table 3b (additional results), 3 replicates, MIC recorded at 48 h): 1.01 to 2 µg/mL (≈ 1.65 to 3.27 µM); IC90 (Diplodia maydis (Dm); read-out: Concentration at 90% Inhibition Dm, Diplodia maydis, growth inhibition at 48 hours vs 2% DMSO control): 0.4 µg/mL (≈ 0.654 µM); IC90 (Diplodia maydis (Dm); read-out: Concentration at 90% Inhibition Dm, Diplodia maydis, growth inhibition vs 2% DMSO control at 48 hours): 0.4 µg/mL (≈ 0.654 µM); IC90 ([2]; read-out: Concentration at 90% Inhibition Pc, Phytophthora capsici, growth inhibition at 48 hours vs 2% DMSO control): > 50 µg/mL; IC90 ([2]; read-out: Concentration at 90% Inhibition Pc, Phytophthora capsici, growth inhibition vs 2% DMSO control at 48 hours): > 50 µg/mL; IC90 (Rhizoctonia solani (Rs); read-out: Concentration at 90% Inhibition Rs, Rhizoctonia solani, mycelial plugs, growth inhibition at 48 hours vs 2% DMSO control): 2 µg/mL (≈ 3.27 µM); IC90 (Rhizoctonia solani (Rs); read-out: Concentration at 90% Inhibition Rs, Rhizoctonia solani, mycelial plugs, growth inhibition vs 2% DMSO control at 48 hours): 2 µg/mL (≈ 3.27 µM) |
| COc1ccc(F)cc1[C@H](Cn1c(=O)n(C(C)(C)C(=O)N2CC=CC2)c(=O)c2c(C)c(-n3nccn3)sc21)OC1CCOCC1 [Compound I-62, (R)-3-(1-(2,5-dihydro-1H-pyrrol-1-yl)-2-methyl-1-oxopro-pan-2-yl)-1-(2-(5-fluoro-2-methoxyphenyl)-2-((tetrahydro-2H-pyran-4-yl)oxy)ethyl)-5-methyl-6-(2H-1,2,3-triazol-2-yl)thieno[2,3-d]pyrimidine-2,4(1H,3H)-dione] | 0.4 (≈ 0.626 µM) | 0.4 (≈ 0.626 µM) | > 50 | > 50 | 1 to 5 | 1 to 5 | 0.25 to 1 (≈ 0.391 to 1.57 µM) | 0.25 to 1 (≈ 0.391 to 1.57 µM) | 2 (≈ 3.13 µM) | 2 (≈ 3.13 µM) | 1 to 5 | 1 to 5 | 0.25 to 1 (≈ 0.391 to 1.57 µM) | 1.01 to 2 (≈ 1.58 to 3.13 µM) | 0.4 (≈ 0.626 µM) | 0.4 (≈ 0.626 µM) | > 50 | > 50 | 0.08 (≈ 0.125 µM) | 0.08 (≈ 0.125 µM) |  |
| COc1ccc(F)cc1[C@H](Cn1c(=O)n(C(C)(C)C(=O)N2CC=CC2)c(=O)c2c(C)c(-n3nccn3)sc21)OC[C@@H](C)O [Compound I-63, 3-(1-(2,5-dihydro-1H-pyrrol-1-yl)-2-methyl-1-oxopropan-2-yl)-1-((R)-2-(5-fluoro-2-methoxyphenyl)-2-((R)-2-hydroxypropoxy)ethyl)-5-methyl-6-(2H-1,2,3-triazol-2-yl)thieno[2,3-d]pyrimidine-2,4(1H,3H)-dione] | 0.4 (≈ 0.653 µM) | 0.4 (≈ 0.653 µM) | > 50 | > 50 | 0.4 to 1 | 0.3 to 1 | 0.25 to 1 (≈ 0.408 to 1.63 µM) | 1.01 to 2 (≈ 1.65 to 3.26 µM) | 2 (≈ 3.26 µM) | 2 (≈ 3.26 µM) | 5 to 10 | 5 to 10 | 1.1 to 2 (≈ 1.8 to 3.26 µM) | 2.01 to 4 (≈ 3.28 to 6.53 µM) | 2 (≈ 3.26 µM) | 2 (≈ 3.26 µM) | > 50 | > 50 | 0.4 (≈ 0.653 µM) | 0.4 (≈ 0.653 µM) |  |
